Data from article PMC2673211, “Nitric oxide activates ATP-sensitive potassium channels in mammalian sensory neurons: action by direct S-nitrosylation” (Molecular Pain, 2009).

What was measured:
Assay type in all cases: biochemical
[1] = target: T1, SUR1-C717S/Kir6.2 channels (Rattus norvegicus, UniProt P70673+Q09429, C717S); assay: Inside-out patch recording of mutated channels expressed in COS7 cells
T1 construct: A full-length Kir cDNA and a full-length SUR cDNA were subcloned into the mammalian expression vector; expressed in transfected cells; host or cells: COS7 cells, pcDNA3.1(-) vectors, GFP cDNA co-transfected as a separate reporter
T1 sequence (Q09429 whole entry C717S): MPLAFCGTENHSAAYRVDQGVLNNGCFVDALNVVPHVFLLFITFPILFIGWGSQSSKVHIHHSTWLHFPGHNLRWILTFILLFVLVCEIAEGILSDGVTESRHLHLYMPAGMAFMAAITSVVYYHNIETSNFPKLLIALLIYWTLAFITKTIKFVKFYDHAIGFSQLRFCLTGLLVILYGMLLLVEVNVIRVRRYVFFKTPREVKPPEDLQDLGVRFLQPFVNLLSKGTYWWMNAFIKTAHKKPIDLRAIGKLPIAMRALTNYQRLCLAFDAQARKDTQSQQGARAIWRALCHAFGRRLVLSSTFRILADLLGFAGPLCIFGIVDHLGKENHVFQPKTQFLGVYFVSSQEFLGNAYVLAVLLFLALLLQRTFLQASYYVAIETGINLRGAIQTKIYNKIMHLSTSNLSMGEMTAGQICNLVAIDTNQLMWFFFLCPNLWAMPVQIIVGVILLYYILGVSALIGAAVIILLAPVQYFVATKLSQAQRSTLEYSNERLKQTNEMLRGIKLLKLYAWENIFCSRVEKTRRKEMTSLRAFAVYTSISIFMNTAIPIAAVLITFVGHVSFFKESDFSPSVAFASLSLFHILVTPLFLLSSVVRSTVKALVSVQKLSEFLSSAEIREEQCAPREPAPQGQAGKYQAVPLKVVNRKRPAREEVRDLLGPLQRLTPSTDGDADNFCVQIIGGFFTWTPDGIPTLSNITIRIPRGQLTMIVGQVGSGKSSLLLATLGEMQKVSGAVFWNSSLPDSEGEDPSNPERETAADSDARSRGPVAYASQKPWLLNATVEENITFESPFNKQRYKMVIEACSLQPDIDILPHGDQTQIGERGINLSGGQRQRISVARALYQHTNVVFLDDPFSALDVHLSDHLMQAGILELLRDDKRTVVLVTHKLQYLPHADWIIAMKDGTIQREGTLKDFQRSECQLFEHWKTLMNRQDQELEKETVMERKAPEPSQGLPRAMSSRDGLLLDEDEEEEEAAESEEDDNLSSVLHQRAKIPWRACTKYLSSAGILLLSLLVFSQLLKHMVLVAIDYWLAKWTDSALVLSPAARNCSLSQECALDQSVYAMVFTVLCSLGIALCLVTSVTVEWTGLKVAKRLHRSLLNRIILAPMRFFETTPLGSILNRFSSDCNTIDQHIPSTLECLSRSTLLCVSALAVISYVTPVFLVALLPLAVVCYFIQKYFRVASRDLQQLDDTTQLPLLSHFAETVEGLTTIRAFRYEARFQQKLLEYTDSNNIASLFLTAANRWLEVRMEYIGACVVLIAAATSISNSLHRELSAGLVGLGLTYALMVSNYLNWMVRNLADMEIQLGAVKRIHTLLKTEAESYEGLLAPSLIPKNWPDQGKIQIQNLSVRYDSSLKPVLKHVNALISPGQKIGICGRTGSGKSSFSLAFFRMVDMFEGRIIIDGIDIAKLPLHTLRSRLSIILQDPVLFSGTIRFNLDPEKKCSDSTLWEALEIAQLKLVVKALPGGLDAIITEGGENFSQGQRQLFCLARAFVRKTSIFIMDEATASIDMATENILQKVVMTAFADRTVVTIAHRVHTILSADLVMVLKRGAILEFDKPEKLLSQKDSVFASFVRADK
T1 sequence (P70673 whole entry): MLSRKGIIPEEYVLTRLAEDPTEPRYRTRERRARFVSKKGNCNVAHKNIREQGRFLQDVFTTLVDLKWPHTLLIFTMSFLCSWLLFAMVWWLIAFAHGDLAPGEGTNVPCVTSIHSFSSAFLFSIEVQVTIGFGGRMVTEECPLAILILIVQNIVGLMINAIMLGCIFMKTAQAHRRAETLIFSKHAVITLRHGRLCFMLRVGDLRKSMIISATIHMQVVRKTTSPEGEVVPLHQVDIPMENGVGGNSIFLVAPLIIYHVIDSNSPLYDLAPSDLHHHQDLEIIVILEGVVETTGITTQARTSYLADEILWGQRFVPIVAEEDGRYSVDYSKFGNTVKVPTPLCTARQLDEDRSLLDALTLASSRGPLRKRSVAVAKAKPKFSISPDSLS
Procedure: (§1) KATP channel-deficient COS7 cells were plated at a density of 3 × 10^5/dish (35 mm in diameter) and cultured in Dulbecco's modified Eagle's medium supplemented with 10% fetal calf serum. Rat Kir6.2 (GenBank X97041) and rat SUR1 (GenBank X97279) cDNAs were used for expression study. A truncated form of Kir6.2 lacking the last 36 amino acids at the C-terminus was obtained by polymerase chain reaction amplification. Polymerase chain reaction products were cloned into the pCR3.1 vector by using the TA cloning system (Invitrogen Corp., Carlsbad, CA, USA) and then cloned into the pcDNA3.1 (-) vector (Invitrogen Corp.) for mammalian expression. Point mutation of cysteine at position 717 (C717), C806, C1378, C1446, and C1491 within SUR1 to serine (C717S, C806S, C1378S, C1446S, and C1491S) was performed by using the Site-Directed Mutagenesis system (Invitrogen Corp.). All cDNA products were sequenced by using the BigDye terminator cycle sequencing kit and an ABI PRISM 377 DNA sequencer (Applied Biosystems, Foster City, CA) to confirm the sequence. A full-length Kir cDNA and a full-length SUR cDNA were subcloned into the mammalian expression vector pcDNA3.1 (-). For electrophysiological recordings, either wild-type or mutated pcDNA3.1 (-) Kir6.2 alone (1 μg), or pcDNA3.1 (-) Kir6.2 (1 μg) plus pcDNA3.1 (-) SUR1 (3 μg) were transfected into COS7 cells with green fluorescent protein cDNA as a reporter gene by using lipofectamine and Opti-MEN 1 reagents (Life Technologies Inc., Rockville, MD) according to the manufacturer's instructions. After transfection, cells were cultured at 37°C with 95% air and 5% CO2 for 48–72 h before being subjected to electrophysiological recordings.
(§2) We recorded current passing through single channels in inside-out or cell-attached patch configurations. In cell-attached patches, both bath and pipette (extracellular) solutions were composed of the following: 140 mM KCl, 10 mM HEPES, 5.5 mM dextrose, and 1 mM EGTA. In inside-out patches, the bath (intracellular) solution contained 140 mM KCl, 1.2 mM MgCl2, 10 mM HEPES, 1.5 mM EGTA and 5.5 mM dextrose. The pipette (extracellular) solution was of the same composition as that used in cell-attached recordings. The pH of all solutions was adjusted to 7.4 with KOH. Osmolality was adjusted approximately to 300 mOsm/l by adding sucrose if necessary. We pulled patch micropipettes from borosilicate glass capillaries using a Flaming/Brown micropipette puller, model P-97 (Sutter, San Rafael, CA) and flame polished them with a microforge polisher (Narishige, Tokyo, Japan) prior to use. Their resistance ranged between 3 and 6 MΩ when filled with the internal solution, and placed into the recording solutions.
(§3) We recorded single channel currents at room temperature (20–25°C) using an Axon CNS Multiclamp 700B amplifier, digitized them using an analog-to-digital converter (Axon CNS DigiData 1440A; Axon Instruments, Foster, CA), and stored them into a PC. Sampling frequency of single-channel data was 5 KHz with a low-pass filter (1 KHz). We used pClamp version 10.2 software (Axon Instruments) for data acquisition and analysis. […] Channel open probability (Po) was determined from the ratios of the area under the peaks in the amplitude histograms fitted by a Gaussian distribution. We calculated channel activity as NPo (where N is the number of observed channels in the patch) from data samples of either 30 s (in inside-out recordings), or 60 s (in cell-attached recordings), in the steady state. […]

[2] = target: T2, wild-type SUR1/Kir6.2 channels (Rattus norvegicus, UniProt P70673+Q09429); assay: Inside-out patch recording of recombinant wild-type channels expressed in COS7 cells; conditions: SNAP 1 mM in the presence of 1 mM [ATP]i; n = 7
T2 construct: A full-length Kir cDNA and a full-length SUR cDNA were subcloned into the mammalian expression vector; expressed in transfected cells; host or cells: COS7 cells (KATP channel-deficient), pcDNA3.1(-) vectors, GFP cDNA co-transfected as a separate reporter
T2 sequence (Q09429 whole entry): as the sequence (Q09429 whole entry C717S) above, with S717C counted along it
T2 sequence (P70673 whole entry): as the sequence (P70673 whole entry) above
Procedure: as §1, §2, §3

[3] = target: T3, Kir6.2ΔC36 channels (Rattus norvegicus, UniProt P70673); assay: Inside-out patch recording of truncated Kir6.2 channels expressed in COS7 cells; conditions: SNAP 1 mM in the presence of 1 mM [ATP]i; n = 6
T3 construct: A truncated form of Kir6.2 lacking the last 36 amino acids at the C-terminus; expressed in transfected cells; host or cells: COS7 cells, pcDNA3.1(-) Kir6.2 alone, GFP cDNA co-transfected as a separate reporter
T3 sequence (P70673 1-354 limits assumed): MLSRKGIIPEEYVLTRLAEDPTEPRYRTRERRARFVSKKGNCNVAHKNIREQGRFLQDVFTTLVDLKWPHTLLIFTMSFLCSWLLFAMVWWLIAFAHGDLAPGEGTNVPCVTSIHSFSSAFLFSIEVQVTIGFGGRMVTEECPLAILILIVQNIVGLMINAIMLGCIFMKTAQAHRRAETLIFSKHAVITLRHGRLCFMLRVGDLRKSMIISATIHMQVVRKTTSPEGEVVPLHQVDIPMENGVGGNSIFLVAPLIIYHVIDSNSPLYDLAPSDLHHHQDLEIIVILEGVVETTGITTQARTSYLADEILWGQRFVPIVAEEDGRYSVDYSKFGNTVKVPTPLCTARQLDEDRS
Procedure: KATP channel-deficient COS7 cells were plated at a density of 3 × 10^5/dish (35 mm in diameter) and cultured in Dulbecco's modified Eagle's medium supplemented with 10% fetal calf serum. Rat Kir6.2 (GenBank X97041) and rat SUR1 (GenBank X97279) cDNAs were used for expression study. A truncated form of Kir6.2 lacking the last 36 amino acids at the C-terminus was obtained by polymerase chain reaction amplification. Polymerase chain reaction products were cloned into the pCR3.1 vector by using the TA cloning system (Invitrogen Corp., Carlsbad, CA, USA) and then cloned into the pcDNA3.1 (-) vector (Invitrogen Corp.) for mammalian expression. […]
We recorded current passing through single channels in inside-out or cell-attached patch configurations. […]
as §3, with “PC.” for “PC. Sampling frequency of single-channel data was 5 KHz with a low-pass filter (1 KHz). We used pClamp version 10.2 software (Axon Instruments) for data acquisition and analysis.”

In the case of S-nitroso-N-acetylpenicillamine [SNAP], the “effect on recombinant channel activity” value ([1]; SNAP 1 mM in the presence of 1 mM [ATP]i) is reported as “significantly activated”, the “potency in activating the channel compared with the wild-type SUR1/Kir6.2 channel” value ([1]; SNAP, n = 8, p < 0.02 vs. wild type) is reported as “significantly less potent” and the “effect on recombinant channel activity” value [2] is reported as “significantly activated”. The “effect on Kir6.2ΔC36 currents” value [3] was “fails to activate”.
